# Test results as given in patent publication US9198913B2, “Nitroimidazooxazines and their uses in anti-tubercular therapy” (priority 2009, dated 2015).
# How the values were obtained:
# [1] = In vivo pharmacokinetics in mice; conditions: CD-1 mice, oral, 40 mg/kg; for Cmax / half-life / Kp: mouse; for Cmax / half-life: in vivo, plasma; for half-life: read-out: t½ (h) plasma (converted); for Kp: lung/plasma, read-out: AUC ratio (lung/plasma);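 for all read-outs here: plasma and lung samples quantified by LC-MS/MS, dosing as a suspension in aqueous carboxymethylcellulose with Tween 80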
# M. tuberculosis Erdman [2] = test: In vivo mouse acute TB infection assay; set-up: species or system Mycobacterium tuberculosis; conditions: BALB/c mice; for In vivo efficacy vs PA-824, Acute: oral 100 mg/kg daily 5 days a week for 3 weeks from day 11 post-infection, ratio of average lung CFU reduction to that with PA-824
# M. tuberculosis Erdman [3] = test: In vivo mouse chronic TB infection assay; set-up: species or system Mycobacterium tuberculosis; conditions: mice, oral 100 mg/kg, treatment beginning ~70 days after infection
# [4] = Stability to human liver microsomes; format: in vitro ADME; conditions: 1 μM, 37° C., 60 min, pooled human liver microsomes;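 note: parent compound quantified by LC-MS/MS against an internal standard, duplicates averaged, expressed relative to the 0 min sample taken as 100%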
# [5] = Stability to mouse liver microsomes; format: in vitro ADME; conditions: 1 μM, 37° C., 60 min, CD-1 mouse liver microsomes;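 note: analyte quantified by LC-MS/MS as ratio to internal standard peak area, mean of duplicates, 60 min value expressed relative to the 0 min level (100%)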
# [6] = Water solubility (sonicated suspension, HPLC); format: physicochemical; conditions: in water; for solubility at 15 min: thermodynamic from solid;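 for all read-outs here: concentration in the clear supernatant quantified by HPLC peak area against a DMSO standard solution of the same compound, corrected for dilution and injection volume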
Structure (SMILES),AUC lung [1] [µg·h/mL],Cmax [1] [ng/mL],half-life [1] [h],Kp [1],"log reductions in CFU (acute assay) (M. tuberculosis Erdman [2]; oral 100 mg/kg, lungs, vs vehicle, 'up to')",log reduction in CFU (chronic assay) (M. tuberculosis Erdman [3]) [log],"Microsomes (% remaining, 1 h) Human [4] [%]",melting point,"Microsomes (% remaining, 1 h) Mouse [5] [%]","In vivo efficacy vs PA-824, Acute (M. tuberculosis Erdman [2])",Solubility [6] [µg/mL],solubility at 15 min [6] [µg/mL],"In vivo efficacy vs PA-824, Chronic (M. tuberculosis Erdman [3]; ratio of average lung CFU reduction to that with PA-824)"
"O=[N+]([O-])c1cn2c(n1)OC[C@@H](OCc1ccc(OC(F)(F)F)cc1)C2 [PA-824, reference compound]",296,5500,4.2,3.8,2.5-3 log,~2,82,,,,,,
"O=[N+]([O-])c1cn2c(n1)OC[C@@H](OCC#Cc1ccc(-c3ccc(OC(F)(F)F)cc3)cc1)C2 [Compound 30, (6S)-2-Nitro-6-({3-[4′-(trifluoromethoxy)[1,1′-biphenyl]-4-yl]-2-propynyl}oxy)-6,7-dihydro-5H-imidazo[2,1-b][1,3]oxazine]",13.6,,,1.4,,,93,192 to 194 °C,85,89,0.07,,
"O=[N+]([O-])c1cn2c(n1)OC[C@@H](OCc1ccc(-c3ccc(C(F)(F)F)nc3)cc1F)C2 [Compound 23, (6S)-6-({2-Fluoro-4-[6-(trifluoromethyl)-3-pyridinyl]benzyl}oxy)-2-nitro-6,7-dihydro-5H-imidazo[2,1-b][1,3]oxazine]",55.4,1560,4.9,2.5,,,96,195 to 198 °C,78,,,5.7,
"O=[N+]([O-])c1cn2c(n1)OC[C@@H](OCc1ccc(-c3ccc(OC(F)(F)F)c(F)c3)cc1)C2 [Compound 2, (6S)-6-{[3′-Fluoro-4′-(trifluoromethoxy)[1,1′-biphenyl]-4-yl]methoxy}-2-nitro-6,7-dihydro-5H-imidazo[2,1-b][1,3]oxazine]",>513,17100,20.5,,,,93,169 to 171 °C,86,,,0.1,
"O=[N+]([O-])c1cn2c(n1)OC[C@@H](OCc1ccc(-c3ccc(OC(F)(F)F)c(F)c3)cn1)C2 [Compound 22, (6S)-6-({5-[3-Fluoro-4-(trifluoromethoxy)phenyl]-2-pyridinyl}methoxy)-2-nitro-6,7-dihydro-5H-imidazo[2,1-b][1,3]oxazine]",155,,,1.1,,,97,182 to 184 °C,86,,30,,
"O=[N+]([O-])c1cn2c(n1)OC[C@@H](OCc1ccc(-c3ccc(OC(F)(F)F)cc3)nn1)C2 [Compound 24, (6S)-2-Nitro-6-({6-[4-(trifluoromethoxy)phenyl]-3-pyridazinyl}methoxy)-6,7-dihydro-5H-imidazo[2,1-b][1,3]oxazine]",93.9,3560,,,,,94,194 °C (dec.),92,,6.1,,
"Cn1nc(-c2ccc(OC(F)(F)F)cc2)cc1CO[C@@H]1COc2nc([N+](=O)[O-])cn2C1 [Compound 11, (6S)-6-({1-Methyl-3-[4-(trifluoromethoxy)phenyl]-1H-pyrazol-5-yl}methoxy)-2-nitro-6,7-dihydro-5H-imidazo[2,1-b][1,3]oxazine]",92.4,1660,6.6,4.7,,,86,,81,,,5.3,0.9
"O=[N+]([O-])c1cn2c(n1)OC[C@@H](OCc1ccc(-c3ccc(C(F)(F)F)cn3)cc1F)C2 [Compound 14, (6S)-6-({2-Fluoro-4-[5-(trifluoromethyl)-2-pyridinyl]benzyl}oxy)-2-nitro-6,7-dihydro-5H-imidazo[2,1-b][1,3]oxazine]",148,440,13.9,16,,,90,233 to 235 °C,77,,,1.2,
"O=[N+]([O-])c1cn2c(n1)OC[C@@H](OCc1ccc(-c3ccc(OC(F)(F)F)c(Cl)c3)nc1)C2 [Compound 28, (6S)-6-({6-[3-Chloro-4-(trifluoromethoxy)phenyl]-3-pyridinyl}methoxy)-2-nitro-6,7-dihydro-5H-imidazo[2,1-b][1,3]oxazine]",284,2890,21.7,,,,87,169 to 171 °C,77,,0.18,,
"O=[N+]([O-])c1cn2c(n1)OC[C@@H](OCc1ccc(-c3ccc(OC(F)(F)F)cc3Cl)cc1)C2 [Compound 1, (6S)-6-{[2′-Chloro-4′-(trifluoromethoxy)[1,1′-biphenyl]-4-yl]methoxy}-2-nitro-6,7-dihydro-5H-imidazo[2,1-b][1,3]oxazine]",3363,6800,19.9,17,,,91,80 to 82 °C,86,,,0.66,
"O=[N+]([O-])c1cn2c(n1)OC[C@@H](OCc1ccc(-c3ccc(OC(F)(F)F)cc3)cc1F)C2 [Compound 12, (6S)-6-{[3-Fluoro-4′-(trifluoromethoxy)[1,1′-biphenyl]-4-yl]methoxy}-2-nitro-6,7-dihydro-5H-imidazo[2,1-b][1,3]oxazine]",549,,22,2.7,,,93,160 to 162 °C,85,33,,1.4,
"O=[N+]([O-])c1cn2c(n1)OC[C@@H](OCc1cnc(-c3ccc(OC(F)(F)F)cc3)nc1)C2 [Compound 16, (6S)-2-Nitro-6-({2-[4-(trifluoromethoxy)phenyl]-5-pyrimidinyl}methoxy)-6,7-dihydro-5H-imidazo[2,1-b][1,3]oxazine]",131,1160,23.1,,,,96,227 to 230 °C,87,,2.1,,
"O=[N+]([O-])c1cn2c(n1)OC[C@@H](OCc1ccc(-c3ccc(C(F)(F)F)cn3)cc1)C2 [Compound 8, (6S)-2-Nitro-6-({4-[5-(trifluoromethyl)-2-pyridinyl]benzyl}oxy)-6,7-dihydro-5H-imidazo[2,1-b][1,3]oxazine]",67.3,,,3.3,,,93,252 to 254 °C,90,,0.20,,
